Reference: US9765060B2 (Gilead Sciences, Inc., priority 2014, dated 2017)
pIC50: −log10 of the molar value.

Molecular target: PI3K isoform δ (Homo sapiens (Human), UniProt O00329)
Assay: TR-FRET assay of enzymatic activity of class I PI3K isoforms
Conditions: not given

Sequence of PI3K isoform δ (O00329 whole entry, canonical isoform): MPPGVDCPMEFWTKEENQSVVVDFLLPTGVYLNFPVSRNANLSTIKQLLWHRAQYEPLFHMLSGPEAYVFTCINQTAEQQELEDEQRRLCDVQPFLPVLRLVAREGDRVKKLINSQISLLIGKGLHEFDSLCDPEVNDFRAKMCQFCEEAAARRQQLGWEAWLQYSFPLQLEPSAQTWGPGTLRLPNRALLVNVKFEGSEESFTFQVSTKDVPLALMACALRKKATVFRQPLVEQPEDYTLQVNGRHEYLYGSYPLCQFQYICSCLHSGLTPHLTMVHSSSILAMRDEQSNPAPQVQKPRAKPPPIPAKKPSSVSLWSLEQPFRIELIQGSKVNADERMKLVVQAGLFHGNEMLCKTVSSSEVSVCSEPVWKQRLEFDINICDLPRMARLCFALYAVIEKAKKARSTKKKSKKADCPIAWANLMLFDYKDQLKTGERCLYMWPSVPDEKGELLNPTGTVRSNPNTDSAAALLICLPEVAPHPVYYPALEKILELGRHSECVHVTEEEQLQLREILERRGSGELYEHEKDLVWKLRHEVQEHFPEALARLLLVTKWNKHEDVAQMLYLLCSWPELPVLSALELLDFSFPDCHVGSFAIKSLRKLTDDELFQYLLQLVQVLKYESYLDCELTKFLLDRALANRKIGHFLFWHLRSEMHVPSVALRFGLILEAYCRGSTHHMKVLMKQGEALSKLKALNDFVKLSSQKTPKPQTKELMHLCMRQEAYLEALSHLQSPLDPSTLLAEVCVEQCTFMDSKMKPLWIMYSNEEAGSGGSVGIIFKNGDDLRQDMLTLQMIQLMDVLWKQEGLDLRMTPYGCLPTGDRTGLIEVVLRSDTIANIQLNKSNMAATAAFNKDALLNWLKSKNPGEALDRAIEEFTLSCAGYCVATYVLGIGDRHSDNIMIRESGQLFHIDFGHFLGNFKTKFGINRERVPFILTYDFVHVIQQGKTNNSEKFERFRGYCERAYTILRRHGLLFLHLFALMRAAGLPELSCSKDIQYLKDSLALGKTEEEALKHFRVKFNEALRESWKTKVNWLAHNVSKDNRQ
Sequence of PI3K isoform δ (P27986 whole entry partner, canonical isoform): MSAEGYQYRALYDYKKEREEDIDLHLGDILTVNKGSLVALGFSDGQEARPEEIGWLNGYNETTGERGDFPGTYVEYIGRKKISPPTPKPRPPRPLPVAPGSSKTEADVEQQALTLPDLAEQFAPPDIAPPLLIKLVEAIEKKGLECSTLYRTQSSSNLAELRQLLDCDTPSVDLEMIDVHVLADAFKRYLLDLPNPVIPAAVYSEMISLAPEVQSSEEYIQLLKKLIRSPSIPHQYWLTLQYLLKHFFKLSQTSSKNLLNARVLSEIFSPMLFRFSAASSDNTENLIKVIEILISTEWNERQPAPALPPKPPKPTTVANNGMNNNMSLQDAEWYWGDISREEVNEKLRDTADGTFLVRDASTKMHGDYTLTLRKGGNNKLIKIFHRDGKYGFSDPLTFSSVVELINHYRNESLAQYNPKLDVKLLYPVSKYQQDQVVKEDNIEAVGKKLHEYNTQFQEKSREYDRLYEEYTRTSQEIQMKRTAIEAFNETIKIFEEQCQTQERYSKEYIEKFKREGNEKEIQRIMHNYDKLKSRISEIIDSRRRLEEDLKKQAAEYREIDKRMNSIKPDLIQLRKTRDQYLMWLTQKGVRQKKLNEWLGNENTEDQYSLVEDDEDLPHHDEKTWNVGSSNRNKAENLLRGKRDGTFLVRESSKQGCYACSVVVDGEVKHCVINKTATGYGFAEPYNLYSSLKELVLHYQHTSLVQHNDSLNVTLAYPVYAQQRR

SMILES | pIC50
N#Cc1c(N)nc(N)nc1N1CCC[C@H]1c1nc2cccc(S(=O)(=O)c3ccccc3)c2c(=O)n1-c1cccc(F)c1 [Compound 77] | 8.70

Same assay, conditions: IC50 (nM) for PI3K isoform δ (Table 3), TR-FRET; 2× Km ATP, 2 μM PIP2; incubated for 30 minutes at 25° C.

SMILES | IC50
C[C@H](Nc1nc(N)nc(N)c1C#N)c1nc2cccc(OCCN(C)C)c2c(=O)n1-c1ccccc1 [Compound 27] | 57 nM

Same assay, conditions: read-out: IC50 (nM) for PI3K isoform δ (Table 2); TR-FRET; 2× Km ATP, 2 μM PIP2; incubated for 30 minutes at 25° C.

SMILES | IC50
CS(=O)(=O)c1cccc2nc([C@@H](Nc3nc(N)nc(N)c3C#N)C3CC3)n(-c3c(F)cccc3F)c(=O)c12 [Compound 6a, (S)-2,4-diamino-6-((cyclopropyl(3-(2,6-difluorophenyl)-5-(methylsulfonyl)-4-oxo-3,4-dihydroquinazolin-2-yl)methyl)amino)pyrimidine-5-carbonitrile] | 41 nM
C[C@H](Nc1ncnc(N)c1C#N)c1nc2cccc(Cl)c2c(=O)n1-c1ccccc1 [Compound Y, (S)-4-amino-6-((1-(5-chloro-4-oxo-3-phenyl-3,4-dihydroquinazolin-2-yl)ethyl)amino)pyrimidine-5-carbonitrile, reference compound] | 0.4 nM
N#Cc1c(N)nc(N)nc1N[C@H](c1nc2ccc(F)c(C#N)c2c(=O)n1-c1ccccc1)C1CC1 [Compound 8a, (S)-2-(cyclopropyl((2,6-diamino-5-cyanopyrimidin-4-yl)amino)methyl)-6-fluoro-4-oxo-3-phenyl-3,4-dihydroquinazoline-5-carbonitrile] | 2 nM

Same assay, conditions: read-out: IC50 (nM) for PI3K isoform δ (Table 3); TR-FRET; 2× Km ATP, 2 μM PIP2; incubated for 30 minutes at 25° C.

SMILES | IC50
N#Cc1c(N)nc(N)nc1N[C@H](c1nc2cccc(CCCN3CCCCC3)c2c(=O)n1-c1ccccc1)C1CC1 [Compound 57, (S)-2,4-diamino-6-((cyclopropyl(4-oxo-3-phenyl-5-(3-(piperidin-1-yl)propyl)-3,4-dihydroquinazolin-2-yl)methyl)amino)pyrimidine-5-carbonitrile] | 1.4 nM
N#Cc1c(Cl)nc(N)nc1N[C@H](c1nc2cccc(CCCN3CCCC3)c2c(=O)n1-c1ccccc1)C1CC1 [Compound 60, (S)-2-amino-4-chloro-6-((cyclopropyl(4-oxo-3-phenyl-5-(3-(pyrrolidin-1-yl)propyl)-3,4-dihydroquinazolin-2-yl)methyl)amino)pyrimidine-5-carbonitrile] | 6 nM
N#Cc1c(N)nc(N)nc1N1CCC[C@H]1c1nc2c(C#N)cccc2c(=O)n1-c1cccc(C(F)F)c1 [Compound 90, (S)-2-(1-(2,6-diamino-5-cyanopyrimidin-4-yl)pyrrolidin-2-yl)-3-(3-(difluoromethyl)phenyl)-4-oxo-3,4-dihydroquinazoline-8-carbonitrile] | 5 nM
C[C@H](Nc1nc(N)nc(N)c1Cl)c1nc2c(F)ccc(CCC(N)=O)c2c(=O)n1-c1cc(F)cc(F)c1 [Compound 41, (S)-3-(2-(1-((2,6-diamino-5-chloropyrimidin-4-yl)amino)ethyl)-3-(3,5-difluorophenyl)-8-fluoro-4-oxo-3,4-dihydroquinazoline-5-yl)propanamide] | 25 nM
C[C@H](Nc1nc(N)nc(N)c1C#N)c1nc2cccc(CCCC(=O)O)c2c(=O)n1-c1ccccc1 [Compound 69, (S)-4-(2-(1-((2,6-diamino-5-cyanopyrimidin-4-yl)amino)ethyl)-4-oxo-3-phenyl-3,4-dihydroquinazolin-5-yl)butanoic acid] | 1 nM
Cc1nc(N)nc(N[C@@H](C)c2nc3cccc(Cl)c3c(=O)n2-c2ccccc2)c1C#N [Compound 96, (S)-2-amino-4-((1-(5-chloro-4-oxo-3-phenyl-3,4-dihydroquinazolin-2-yl)ethyl)amino)-6-methylpyrimidine-5-carbonitrile] | 0.1 nM
N#Cc1c(N)nc(N)nc1N1CCC[C@H]1c1nc2c(Cl)cccc2c(=O)n1-c1cc(F)cc(F)c1 [Compound 85, (S)-2,4-diamino-6-(2-(8-chloro-3-(3,5-difluorophenyl)-4-oxo-3,4-dihydroquinazolin-2-yl)pyrrolidin-1-yl)pyrimidine-5-carbonitrile] | 10 nM
C[C@H](Nc1nc(N)nc(N)c1C#N)c1nc2c(F)ccc(CCCN3CCC(F)(F)C3)c2c(=O)n1-c1ccccc1 [Compound 55, (S)-2,4-diamino-6-((1-(5-(3-(3,3-difluoropyrrolidin-1-yl)propyl)-8-fluoro-4-oxo-3-phenyl-3,4-dihydroquinazolin-2-yl)ethyl)amino)pyrimidine-5-carbonitrile] | 0.4 nM
Cc1nc(N)c(Br)c(N[C@@H](C)c2nc3cccc(Cl)c3c(=O)n2-c2cc(F)cc(F)c2)n1 [Compound 21, (S)-2-(1-((6-amino-5-bromo-2-methylpyrimidin-4-yl)amino)ethyl)-5-chloro-3-(3,5-difluorophenyl)quinazolin-4(3H)-one] | 30 nM
C[C@H](Nc1nc(N)nc(N)c1C#N)c1nc2cccc(CCCN3CCC4(COC4)C3)c2c(=O)n1-c1ccccc1 [Compound 63, (S)-4-((1-(5-(3-(2-oxa-6-azaspiro[3.4]octan-6-yl)propyl)-4-oxo-3-phenyl-3,4-dihydroquinazolin-2-yl)ethyl)amino)-2,6-diaminopyrimidine-5-carbonitrile] | 0.8 nM
N#Cc1c(N)nc(N)nc1N1C[C@@H](NC(=O)C(F)(F)F)C[C@H]1c1nc2cccc(Cl)c2c(=O)n1-c1ccccc1 [Compound 108, N-((3S,5S)-5-(5-chloro-4-oxo-3-phenyl-3,4-dihydroquinazolin-2-yl)-1-(2,6-diamino-5-cyanopyrimidin-4-yl)pyrrolidin-3-yl)-2,2,2-trifluoroacetamide] | 2 nM
Nc1nc(N)c(Cl)c(N2CCOC[C@H]2c2nc3cccc(Cl)c3c(=O)n2-c2ccccc2)n1 [Compound 100, (R)-5-chloro-2-(4-(2,6-diamino-5-chloropyrimidin-4-yl)morpholin-3-yl)-3-phenylquinazolin-4(3H)-one] | 8400 nM
CC(C)OC(=O)COc1cccc2nc([C@H](C)Nc3nc(N)nc(N)c3C#N)n(-c3ccccc3)c(=O)c12 [Compound 25, (S)-isopropyl 2-((2-(1-((2,6-diamino-5-cyanopyrimidin-4-yl)amino)ethyl)-4-oxo-3-phenyl-3,4-dihydroquinazolin-5-yl)oxy)acetate] | 36 nM
C[C@H](Nc1nc(N)nc(N)c1Cl)c1nc2cccc(CCC(N)=O)c2c(=O)n1-c1cc(F)cc(F)c1 [Compound 42, (S)-3-(2-(1-((2,6-diamino-5-chloropyrimidin-4-yl)amino)ethyl)-3-(3,5-difluorophenyl)-4-oxo-3,4-dihydroquinazoline-5-yl)propanamide] | 20 nM
N#Cc1c(N)nc(N)nc1N[C@H](c1nc2cccc(CCCN3CCCC3)c2c(=O)n1-c1ccccc1)C1CC1 [Compound 56, (S)-2,4-diamino-6-((cyclopropyl(4-oxo-3-phenyl-5-(3-(pyrrolidin-1-yl)propyl)-3,4-dihydroquinazolin-2-yl)methyl)amino)pyrimidine-5-carbonitrile] | 3 nM
C[C@H](Nc1nc(N)nc(N)c1C#N)c1nc2cccc(OCC(=O)N3CCCCC3)c2c(=O)n1-c1ccccc1 [Compound 28, (S)-2,4-diamino-6-((1-(4-oxo-5-(2-oxo-2-(piperidin-1-yl)ethoxy)-3-phenyl-3,4-dihydroquinazolin-2-yl)ethyl)amino)pyrimidine-5-carbonitrile] | 2 nM
C[C@H](Nc1nc(N)nc(N)c1Cl)c1nc2cccc(CCC(N)=O)c2c(=O)n1-c1ccccc1 [Compound 43, (S)-3-(2-(1-((2,6-diamino-5-chloropyrimidin-4-yl)amino)ethyl)-4-oxo-3-phenyl-3,4-dihydroquinazoline-5-yl)propanamide] | 9 nM
C[C@H](Nc1nc(N)nc(N)c1C#N)c1nc2cccc(S(=O)(=O)C3CCCC3)c2c(=O)n1-c1cccc(F)c1 [Compound 80, (S)-2,4-diamino-6-((1-(5-(cyclopentylsulfonyl)-3-(3-fluorophenyl)-4-oxo-3,4-dihydroquinazolin-2-yl)ethyl)amino)pyrimidine-5-carbonitrile] | 61 nM
C[C@H](Nc1nc(N)nc(N)c1C#N)c1nc2cccc(OCC3(C)COC3)c2c(=O)n1-c1ccccc1 [Compound 34, (S)-2,4-diamino-6-((1-(5-((3-methyloxetan-3-yl)methoxy)-4-oxo-3-phenyl-3,4-dihydroquinazolin-2-yl)ethyl)amino)pyrimidine-5-carbonitrile] | 46 nM
C[C@H](Nc1nc(N)nc(Cl)c1C#N)c1nc2cccc(Cl)c2c(=O)n1-c1ccccc1 [Compound 101, (S)-2-amino-4-chloro-6-((1-(5-chloro-4-oxo-3-phenyl-3,4-dihydroquinazolin-2-yl)ethyl)amino)pyrimidine-5-carbonitrile] | 1 nM
C[C@H](Nc1nc(N)nc(N)c1C#N)c1nc2cccc(C3=CCNCC3)c2c(=O)n1-c1ccccc1 [Compound 93, (S)-2,4-diamino-6-((1-(4-oxo-3-phenyl-5-(1,2,3,6-tetrahydropyridin-4-yl)-3,4-dihydroquinazolin-2-yl)ethyl)amino)pyrimidine-5-carbonitrile] | 17 nM
CS(=O)(=O)c1cccc2nc([C@@H]3CCCN3c3nc(N)nc(N)c3C#N)n(-c3cccc(F)c3)c(=O)c12 [Compound 72, (S)-2,4-diamino-6-(2-(3-(3-fluorophenyl)-5-(methylsulfonyl)-4-oxo-3,4-dihydroquinazolin-2-yl)pyrrolidin-1-yl)pyrimidine-5-carbonitrile] | 4 nM
N#Cc1c(N)nc(N)nc1N1CC[C@H]1c1nc2cccc(Cl)c2c(=O)n1-c1cc(F)cc(F)c1 [Compound 67, (S)-2,4-diamino-6-(2-(5-chloro-3-(3,5-difluorophenyl)-4-oxo-3,4-dihydroquinazolin-2-yl)azetidin-1-yl)pyrimidine-5-carbonitrile] | 110 nM
C[C@H](Nc1nc(F)nc(N)c1C#N)c1nc2cccc(Cl)c2c(=O)n1-c1ccccc1 [Compound 106, (S)-4-amino-6-((1-(5-chloro-4-oxo-3-phenyl-3,4-dihydroquinazolin-2-yl)ethyl)amino)-2-fluoropyrimidine-5-carbonitrile] | 0.8 nM
